Measurements published in BigSolDB 2.1.

O=Cc1cc(C=O)cc(C=O)c1
solubility (mole fraction)
Conditions	283.15 K	288.15 K	293.15 K	298.15 K	303.15 K	308.15 K	313.15 K	318.15 K	323.15 K
in 1,4-dioxane	–	0.0135	0.0164	0.0206	0.0249	0.0288	0.0336	0.0372	0.041
in acetone	0.01	0.0112	0.0132	0.0152	0.0191	0.023	0.0265	0.0307	0.035
in acetonitrile	0.00502	0.00616	0.00711	0.00872	0.01	0.0113	0.0137	0.0153	0.0178
in ethanol	0.0018	0.00208	0.00251	0.00297	0.00365	0.00429	0.0052	0.00614	0.00703
in isobutanol	0.000219	0.000308	0.000396	0.000488	0.000917	0.00193	0.00277	0.00387	0.00601
in isopropanol	0.000462	0.000512	0.000605	0.00069	0.000803	0.00147	0.00216	0.00291	0.00363
in methanol	0.00351	0.00442	0.00563	0.00691	0.00858	0.0101	0.0122	0.0142	0.0158
in n-butanol	0.000718	0.000765	0.000864	0.0013	0.00181	0.00242	0.00288	0.0037	0.00565
in n-pentanol	0.00134	0.00153	0.00185	0.00216	0.00244	0.00276	0.00341	0.0042	0.00538
in n-propanol	0.000909	0.00104	0.00131	0.00154	0.00194	0.00243	0.00296	0.00347	0.00405
in sec-butanol	0.000294	0.000394	0.000601	0.000789	0.00101	0.00128	0.00155	0.00206	0.00254
in water	4.1e-05	6.1e-05	8.8e-05	0.000108	0.000132	0.000152	0.00017	0.000185	0.000198
